Assay results reported in patent publication US10117874B2, “Combination of PI3K-inhibitors” (BAYER PHARMA AKTIENGESELLSCHAFT, priority 2013, dated 2018).

Columns and labels:
[1] = test system: 4T1 breast cancer cells; experiment: WST-1 based proliferation assay, 4T1; type: cell-based, mouse
Protocol: (§1) The effects of PI3K inhibitor compound A′ and compound B in MCF-7 and 4T1 breast cancer cells and PC-3 and LNCaP prostate cancer cells were investigated in vitro as single agent and in combination. The effects were studied by measuring cell proliferation and apoptosis. Compound B and the reference inhibitor doxorubicin were added at day 0. The PI3K inhibitors were added at day −1 (24 hours before addition of Alpharadin) and at day 4. The following two concentrations of the inhibitors and two concentrations of radium 223 in 4 replicates were tested:
(§2) The effects on cell proliferation were studied using a WST-1 based proliferation assay and the effects on apoptosis were studied in parallel plates by measuring caspase 3/7 activity. The measurements were performed at 4 different time points, days 1, 2, 3 and 5. Caspase activity was normalized to the cell number obtained with the WST-1 assay in parallel plates.
(§3) The results are shown as Absorbance (450 nm) measured in the WST-1 proliferation assay (MEAN).

[2] = test system: LNCaP prostate cancer cells; experiment: WST-1 based proliferation assay, LNCaP; type: cell-based, human
Protocol: as §1, §2
(A) The results are shown as Absorbance (450 nm) measured in the WST-1 proliferation assay (MEAN).

[3] = test system: MCF-7 breast cancer cells; experiment: Apoptosis by caspase 3/7 activity, MCF-7; type: cell-based, human; conditions: day 2, caspase activity normalized to WST-1 cell number
Protocol: as §1, §2
(§4) (A) The results are shown as Absorbance (450 nm) measured in the WST-1 proliferation assay (MEAN). (B) The results are shown as Caspase 3/7/WST-1 values (MEAN). […] (B) The effects of PI3K inhibitor compound A′ and Radium 223 on MCF-7 cell caspase 3/7 activity at days 2. The results are shown as Caspase 3/7/WST-1 values (MEAN+SEM).

[4] = test system: MCF-7 breast cancer cells; experiment: WST-1 based proliferation assay, MCF-7; type: cell-based, human; conditions: MCF-7 (ER+, PIK3CA mutation); WST-1 absorbance 450 nm, days 1-5; compound A′ 50/500 nM, compound B 1600/800 Bq/ml
Protocol: as §1, §2, §4

[5] = test system: PC-3 prostate cancer cells; experiment: WST-1 based proliferation assay, PC-3; type: cell-based, human; conditions: PC3 (AR-negative, PTEN loss); WST-1 absorbance 450 nm, days 1-5; compound A′ 50/500 nM, compound B 1600/800 Bq/ml
Protocol: as §1, §2, §3

[6] = test system: CRPC and bone metastases; conditions: Phase 2 studies; cited from earlier work
[7] = single doses up to 250 kBq per kg body weight; cited from earlier work
[8] = test system: CRPC (Castration Resistant Prostate Cancer) and bone metastases; conditions: cited from earlier work
[9] = phase 1 and 2 studies; patients with bone metastases; cited from earlier work
[10] = LNCaP (AR-positive, PTEN loss), WST-1 absorbance 450 nm, days 1-5
[11] = WST-1 absorbance 450 nm, days 1-5, compound A′ 100/1000 nM, compound B 1600/800 Bq/ml
[12] = ALSYMPCA trial, patients with CRPC and bone metastases

SMILES	inhibition of tumor cell proliferation ([1]; lower (100 nM) dose)	inhibition of tumor cell proliferation [2, 10]	apoptosis / tumor cell death induction (caspase 3/7 / WST-1) [3]	inhibition of tumor cell proliferation [4]	inhibition of tumor cell proliferation [5]	inhibition of tumor cell proliferation [1, 11]	inhibition of tumor cell proliferation ([1]; higher dose)	pain and disease-related biomarkers (bone ALP, PSA) [6]	inhibition of tumor cell proliferation ([2]; LNCaP, high dose (1600 Bq/mL))	cases of grade 3 neutropenia [7]	observed adverse reactions [7]	median survival longer than placebo [8, 12]	reduction in risk of death compared with placebo [8, 12]	time to first skeletal-related event ([8]; ALSYMPCA trial, versus placebo)	median overall survival ([8]; Phase III clinical trials)	safety profile [9]
COc1c(OCCCN2CCOCC2)ccc2c1N=C(NC(=O)c1cnc(N)nc1)N1CCN=C21.Cl.Cl [compound A′, 2-amino-N-[7-methoxy-8-(3-morpholin-4-ylpropoxy)-2,3-dihydroimidazo[1,2-c]quinazolin-5-yl]pyrimidine-5-carboxamide dihydrochloride]	only moderate inhibition of tumor cell proliferation	strong anti-proliferative effects	only at high dose can induce apoptosis	potent anti-proliferative activity	better anti-proliferactive activity											
[Cl][223Ra][Cl] [compound B, radium-223 dichloride]			could not induce tumor cell death	only slight inhibition of tumor cell proliferation	moderate inhibition of tumor cell proliferation	only moderate inhibition of tumor cell proliferation	strong anti-proliferative effects	reduces pain, improves disease-related biomarkers	effective	⅕	diarrhea and reversible myelosuppression	2.8 months	30.5%	significantly prolonged	Significant increase in median overall survival	favorable safety profile, with minimal myelotoxicity
COc1cccc2c1C(=O)c1c(O)c3c(c(O)c1C2=O)C[C@@](O)(C(=O)CO)C[C@@H]3O[C@H]1C[C@H](N)[C@H](O)[C@H](C)O1 [doxorubicin]		inhibited proliferation		inhibited proliferation	inhibited proliferation	inhibited proliferation										
